Assay results taken from patent US9556143B2, “Metalloenzyme inhibitor compounds” (Viamet Pharmaceuticals, Inc., priority 2011, dated 2017).

What follows are compounds tested on Puccinia recondita tritici = Puccinia triticina (PUCCRT) (assay: Fungicidal activity vs. wheat leaf rust). Settings: % disease control @ 50 ppm, wheat seedlings sprayed, inoculated the following day, severity evaluated 7-9 days later, read-out: Puccinia Rating.
Assay type: in vivo, Puccinia recondita tritici on wheat (variety Yuma)
Text: D. Evaluation of Fungicidal Activity Vs. Leaf Rust (Causal Agent Puccinia recondita tritici=Puccinia triticina; Bayer code PUCCRT). […] Each pot contained 3-8 seedlings. These plants were sprayed until wet with the formulated test compounds. The compounds were formulated at 50 ppm in 10 vol. % acetone plus 90 vol. % Triton X water (deionized water 99.99 wt %+0.01 wt % Triton X100), giving a “formulated test compound.” Formulated test compounds were applied to plants using a turn table sprayer fitted with two opposing air atomization nozzles which delivered approximately 1500 L/ha of spray volume. On the following day, the leaves were inoculated with an aqueous spore suspension of Puccinia recondita tritici and the plants were kept in high humidity overnight to permit spores to germinate and infect the leaf. The plants were then transferred to a greenhouse until disease developed on untreated control plants. Disease severity was evaluated 7-9 days later, depending on the speed of disease development. In each case of Table 3, the Puccinia rating scale is as follows: […]

`OC(Cn1cnnn1)(c1ccc(F)cc1F)C(F)(F)c1ccccn1` (stereo not drawn) [2(−), 2-(2,4-Difluorophenyl)-1,1-difluoro-1-(pyridin-2-yl)-3-(1H-tetrazol-1-yl)propan-2-ol] and `OC(Cn1cnnn1)(c1ccc(F)cc1F)C(F)(F)c1ccc(Br)cn1` (stereo not shown) [Compound 1, 1-(5-Bromopyridin-2-yl)-2-(2,4-difluorophenyl)-1,1-difluoro-3-(1H-tetrazol-1-yl)propan-2-ol] fall in the same range of pest or weed control at 50 ppm: 80 to 100% for the first, 80 to 100% for the second.

`OC(Cn1cnnn1)(c1ccc(F)cc1F)C(F)(F)c1ccc(/C=C/COCC(F)(F)F)cn1` (stereo not shown) [Compound 6, (E)-2-(2,4-Difluorophenyl)-1,1-difluoro-3-(1H-tetrazol-1-yl)-1-(5-(3-(2,2,2-trifluoroethoxy)prop-1-en-1-yl)pyridin-2-yl)propan-2-ol] and `CCOC/C=C/c1ccc(C(F)(F)C(O)(Cn2cnnn2)c2ccc(F)cc2F)nc1` (stereo not shown) [Compound 51, (E)-2-(2,4-Difluorophenyl)-1-(5-(3-ethoxyprop-1-en-1-yl)pyridin-2-yl)-1,1-difluoro-3-(1H-tetrazol-1-yl)propan-2-ol] cannot be ordered by pest or weed control at 50 ppm: less than 40% for the first, less than 40% for the second.

`OC(Cn1cnnn1)(c1ccc(F)cc1F)C(F)(F)c1ccc(F)cn1` (stereo not shown) [Compound 10, 2-(2,4-Difluorophenyl)-1,1-difluoro-1-(5-fluoropyridin-2-yl)-3-(1H-tetrazol-1-yl)propan-2-ol] and `Cc1ccc(C(F)(F)C(O)(Cn2cnnn2)c2ccc(F)cc2F)nc1` (stereo not shown) [Compound 25, 2-(2,4-Difluorophenyl)-1,1-difluoro-1-(5-methylpyridin-2-yl)-3-(1H-tetrazol-1-yl)propan-2-ol] fall in the same range of pest or weed control at 50 ppm: 80 to 100% for the first, 80 to 100% for the second.

`OC(Cn1cnnn1)(c1ccc(F)cc1F)C(F)(F)c1ccc(CC(F)(F)F)cn1` (stereo not shown) [Compound 17, 2-(2,4-Difluorophenyl)-1,1-difluoro-3-(1H-tetrazol-1-yl)-1-(5-(2,2,2-trifluoroethyl)pyridin-2-yl)propan-2-ol] and `OC(Cn1cnnn1)(c1ccc(Cl)cc1F)C(F)(F)c1ccc(CC(F)(F)F)cn1` (stereo not shown) [Compound 39, 2-(4-Chloro-2-fluorophenyl)-1,1-difluoro-3-(1H-tetrazol-1-yl)-1-(5-(2,2,2-trifluoroethyl)pyridin-2-yl)propan-2-ol] fall in the same range of pest or weed control at 50 ppm: 80 to 100% for the first, 80 to 100% for the second.

`OC(Cn1cnnn1)(c1ccc(F)cc1F)C(F)(F)c1ccc(C2CC2)cn1` (stereo not shown) [Compound 18, 1-(5-Cyclopropylpyridin-2-yl)-2-(2,4-difluorophenyl)-1,1-difluoro-3-(1H-tetrazol-1-yl)propan-2-ol] and `OC(Cn1cnnn1)(c1ccc(Cl)cc1F)C(F)(F)c1ccc(C2CC2)cn1` (stereo not shown) [Compound 40, 2-(4-Chloro-2-fluorophenyl)-1-(5-cyclopropylpyridin-2-yl)-1,1-difluoro-3-(1H-tetrazol-1-yl)propan-2-ol] fall in the same range of pest or weed control at 50 ppm: 80 to 100% for the first, 80 to 100% for the second.

`OC(Cn1cnnn1)(c1ccc(Cl)cc1F)C(F)(F)c1ccc(Br)cn1` (stereo not shown) [Compound 22, 1-(5-Bromopyridin-2-yl)-2-(4-chloro-2-fluorophenyl)-1,1-difluoro-3-(1H-tetrazol-1-yl)propan-2-ol] and `OC(Cn1cnnn1)(c1ccc(Cl)cc1F)C(F)(F)c1ccc(Cl)cn1` (stereo not shown) [Compound 26, 2-(4-Chloro-2-fluorophenyl)-1-(5-chloropyridin-2-yl)-1,1-difluoro-3-(1H-tetrazol-1-yl)propan-2-ol] fall in the same range of pest or weed control at 50 ppm: 80 to 100% for the first, 80 to 100% for the second.

`OC(Cn1cnnn1)(c1ccc(Cl)cc1F)C(F)(F)c1ccc(F)cn1` (stereo not shown) [Compound 27, 2-(4-Cloro-2-fluorophenyl)-1,1-difluoro-1-(5-fluoropyridin-2-yl)-3-(1H-tetrazol-1-yl)propan-2-ol] and `OC(Cn1cnnn1)(c1ccc(Cl)cc1F)C(F)(F)c1ccc(CC2CC2)cn1` (stereo not shown) [Compound 60, 7-(4-Chloro-fluorophenyl)-1-(5-(cyclopropylmethyl)pyridin-2-yl)-1,1-difluoro-3-(1H-tetrazol-1-yl)propan-2-ol] fall in the same range of pest or weed control at 50 ppm: 80 to 100% for the first, 80 to 100% for the second.

`OC(Cn1cnnn1)(c1ccc(Cl)cc1F)C(F)(F)c1ccc(-n2nccn2)cn1` (stereo not shown) [Compound 28, 1-(5-(2H-1,2,3-Triazol-2-yl)pyridin-2-yl)-2-(4-chloro-2-fluorophenyl)-1,1-difluoro-3-(1H-tetrazol-1-yl)propan-2-ol] and `OC(Cn1cnnn1)(c1ccc(F)cc1F)C(F)(F)c1ccc(-c2nccs2)cn1` (stereo not shown) [Compound 38, 2-(2,4-Difluorophenyl)-1,1-difluoro-3-(1H-tetrazol-1-yl)-1-(5-(thiazol-2-yl)pyridin-2-yl)propan-2-ol] fall in the same range of pest or weed control at 50 ppm: 80 to 100% for the first, 80 to 100% for the second.

`OC(Cn1cncn1)(c1ccc(F)cc1F)C(F)(F)c1ccc(Cl)cn1` (stereo not shown) [Compound 29, 1-(5-Chloropyridin-2-yl)-2-(2,4-difluorophenyl)-1,1-difluoro-3-(1H-1,2,4-triazol-1-yl)propan-2-ol] and `OC(Cn1cnnn1)(c1ccc(F)cc1F)C(F)(F)c1ccc(CC2CC2)cn1` (stereo not shown) [Compound 59, 1-(5-(Cyclopropylmethyl)pyridin-2-yl)-2-(2,4-difluorophenyl)-1,1-difluoro-3-(1H-tetrazol-1-yl)propan-2-ol] fall in the same range of pest or weed control at 50 ppm: 80 to 100% for the first, 80 to 100% for the second.

First: COc1ccc(-c2ccc(C(F)(F)C(O)(Cn3cnnn3)c3ccc(F)cc3F)nc2)s1 (stereo not shown) [Compound 32, 2-(2,4-Difluorophenyl)-1,1-difluoro-1-(5-(5-methoxythiophen-2-yl)pyridin-2-yl)-3-(1H-tetrazol-1-yl)propan-2-ol]
Second: OC(Cn1cnnn1)(c1ccc(F)cc1F)C(F)(F)c1ccc(-c2ccc(C(F)F)s2)cn1 (stereo not shown) [Compound 33, 1-(5-(5-(Difluoromethyl)thiophen-2-yl)pyridin-2-yl)-2-(2,4-difluorophenyl)-1,1-difluoro-3-(1H-tetrazol-1-yl)propan-2-ol]
The pest or weed control at 50 ppm of the first is lower: 40 to 59% for the first, 80 to 100% for the second.

`OC(Cn1cnnn1)(c1ccc(F)cc1F)C(F)(F)c1ccc(-c2ccc(C(F)(F)F)s2)cn1` (stereo not shown) [Compound 34, 2-(2,4-Difluorophenyl)-1,1-difluoro-3-(1H-tetrazol-1-yl)-1-(5-(5-(trifluoromethyl)thiophen-2-yl)pyridin-2-yl)propan-2-ol] and `OC(Cn1cnnn1)(c1ccc(F)cc1F)C(F)(F)c1ccc(Cc2ccc(C(F)(F)F)cc2)cn1` (stereo not shown) [Compound 73, 2-(2,4-Difluorophenyl)-1,1-difluoro-3-(1H-tetrazol-1-yl)-1-(5-(4-(trifluoromethyl)benzyl)pyridin-2-yl)propan-2-ol] fall in the same range of pest or weed control at 50 ppm: 80 to 100% for the first, 80 to 100% for the second.

`OC(Cn1cnnn1)(c1ccc(F)cc1F)C(F)(F)c1ccc(CCCOCC(F)(F)F)cn1` (stereo not shown) [Compound 45, 2-(2,4-Difluorophenyl)-1,1-difluoro-3-(1H-tetrazol-1-yl)-1-(5-(3-(2,2,2-trifluoroethoxy)propyl)pyridin-2-yl)propan-2-ol] and `CCOCCCc1ccc(C(F)(F)C(O)(Cn2cnnn2)c2ccc(F)cc2F)nc1` (stereo not shown) [Compound 53, 2-(2,4-Difluorophenyl)-1-(5-(3-ethoxypropyl)pyridin-2-yl)-1,1-difluoro-3-(1H-tetrazol-1-yl)propan-2-ol] fall in the same range of pest or weed control at 50 ppm: 80 to 100% for the first, 80 to 100% for the second.

`CCOC/C=C\c1ccc(C(F)(F)C(O)(Cn2cnnn2)c2ccc(F)cc2F)nc1` (stereo not shown) [Compound 52, (Z)-2-(2,4-Difluorophenyl)-1-(5-(3-ethoxyprop-1-en-1-yl)pyridin-2-yl)-1,1-difluoro-3-(1H-tetrazol-1-yl)propan-2-ol] and `CC(C)OC/C=C/c1ccc(C(F)(F)C(O)(Cn2cnnn2)c2ccc(F)cc2F)nc1` (stereo not shown) [Compound 54, (E)-2-(2,4-Difluorophenyl)-1,1-difluoro-1-(5-(3-isopropoxyprop-1-en-1-yl)pyridin-2-yl)-3-(1H-tetrazol-1-yl)propan-2-ol] cannot be ordered by pest or weed control at 50 ppm: less than 40% for the first, less than 40% for the second.

`O=C(c1ccc(C(F)(F)F)cc1)c1ccc(C(F)(F)C(O)(Cn2cnnn2)c2ccc(F)cc2F)nc1` (stereo not shown) [Compound 66, (6-(2-(2,4-Difluorophenyl)-1,1-difluoro-2-hydroxy-3-(1H-tetrazol-1-yl)propyl)pyridin-3-yl)(4-(trifluoromethyl)phenyl)methanone] and `O=C(c1ccc(OCC(F)(F)F)cc1)c1ccc(C(F)(F)C(O)(Cn2cnnn2)c2ccc(F)cc2F)nc1` (stereo not shown) [Compound 68, (6-(2-(2,4-Difluorophenyl)-1,1-difluoro-2-hydroxy-3-(1H-tetrazol-1-yl)propyl)pyridin-3-yl)(4-(2,2,2-trifluoroethoxy)phenyl)methanone] fall in the same range of pest or weed control at 50 ppm: 80 to 100% for the first, 80 to 100% for the second.

`O=C(c1ccc(Cl)cc1)c1ccc(C(F)(F)C(O)(Cn2cnnn2)c2ccc(F)cc2F)nc1` (stereo not shown) [Compound 67, (4-Chlorophenyl)(6-(2-(2,4-difluorophenyl)-1,1-difluoro-2-hydroxy-3-(1H-tetrazol-1-yl)propyl)pyridin-3-yl)methanone] and `O=C(c1ccc(F)cc1)c1ccc(C(F)(F)C(O)(Cn2cnnn2)c2ccc(F)cc2F)nc1` (stereo not shown) [Compound 69, (6-(2-(2,4-Difluorophenyl)-1,1-difluoro-2-hydroxy-3-(1H-tetrazol-1-yl)propyl)pyridin-3-yl)(4-fluorophenyl)methanone] fall in the same range of pest or weed control at 50 ppm: 80 to 100% for the first, 80 to 100% for the second.

`O=C(c1ccc(C(F)(F)C(O)(Cn2cnnn2)c2ccc(F)cc2F)nc1)c1ccc(Cl)c(F)c1` (stereo not shown) [Compound 71, (4-Chloro-3-fluorophenyl)(6-(2-(2,4-difluorophenyl)-1,1-difluoro-2-hydroxy-3-(1H-tetrazol-1-yl)propyl)pyridin-3-yl)methanone] gave a pest or weed control at 50 ppm of 80 to 100%.
